# In patent US4868183A, “N-pyrazinyl substituted P-aminophenols” (Otsuka Pharmaceutical Factory, Inc., priority 1986, dated 1989):
# Test system: carrageenin-induced paw edema
# Assay: Anti-inflammatory activity: inhibition of carrageenin-induced paw edema in rats
# Type: in vivo, rat (male, S.D. strain)
# Details: Rattus norvegicus, po, 3 h, read-out: Inhibition percent of edema
# Experimental: (1) Anti-inflammatory activity: inhibition of carrageenin-induced paw edema in rats The compound was tested for the above activity according to the method of C.A. Winter et al. [Proc. Soc. […] One hour after the test compound was orally given to the animal, 0.1 ml of 1% carrageenin solution was subcutaneously injected into the right footpad. The paw volume was measured 3 hours thereafter, and the resulting increase in the volume was calculated based on the volume before the injection of carrageenin solution. The percent inhibition was determined in comparison with the increase in the control group.
row,SMILES,inhibition in vivo at 5 mg/kg
1,"COc1ccc2c(c1)c(CC(=O)O)c(C)n2C(=O)c1ccc(Cl)cc1 [Indomethacin, reference compound]",36%

# Same assay, conditions: Rattus norvegicus, po; 10 mg/kg p.o., 1 h before carrageenin; paw volume 3 h after; vs control; read-out: Inhibition percent of edema
row,SMILES,inhibition in vivo at 10 mg/kg
1,"CC(C)(C)c1cc(Nc2ncccn2)cc(C(C)(C)C)c1O [Compound 13, 2,6-di-tert-butyl-4-[(2-pyrimidinyl)amino]phenol]",41%

# Same assay, conditions: Rattus norvegicus, po; 25 mg/kg p.o., 1 h before carrageenin; paw volume 3 h after; vs control; read-out: Inhibition percent of edema
row,SMILES,inhibition in vivo at 25 mg/kg
1,CC(C)c1cc(Nc2cccnn2)cc(C(C)(C)C)c1O [Compound 10],35%
2,"CC(C)(C)c1cc(Nc2ccnnc2)cc(C(C)(C)C)c1O [Compound 12, 2,6-di-tert-butyl-4-[(4-pyridazinyl)amino]phenol]",29%
3,"Cc1ccc(Nc2cc(C(C)(C)C)c(O)c(C(C)(C)C)c2)nn1 [Compound 17, 2,6-di-tert-butyl-4-[(6-methyl-3-pyridazinyl)amino]phenol]",36%
4,"COc1ccc(Nc2cc(C(C)(C)C)c(O)c(C(C)(C)C)c2)nn1 [Compound 24, 2,6-di-tert-butyl-4-[(6-methoxy-3-pyridazinyl)amino]phenol]",31%
5,CC(C)(C)c1cc(Nc2ncc[nH]2)cc(C(C)(C)C)c1O [Compound 48],63%
6,"CC(C)(C)c1cc(Nc2cncc[n+]2[O-])cc(C(C)(C)C)c1O [Compound 64, 2-N-(3,5-di-tert-butyl-4-hydroxyphenyl)aminopyrazine-1-oxide]",31%

# Same assay, conditions: Rattus norvegicus, po; 50 mg/kg p.o., 1 h before carrageenin; paw volume 3 h after; vs control; read-out: Inhibition percent of edema
row,SMILES,inhibition in vivo at 50 mg/kg
1,"CC(C)(C)c1cc(Nc2cnccn2)cc(C(C)(C)C)c1O [Compound 1, 2,6-di-tert-butyl-4-pyrazinylaminophenol]",37%
2,"CC(C)(C)c1cc(Nc2ccncn2)cc(C(C)(C)C)c1O [Compound 14, 2,6-di-tert-butyl-4-[(4-pyrimidinyl)amino]phenol]",30%
3,"Cc1ccnc(Nc2cc(C(C)(C)C)c(O)c(C(C)(C)C)c2)n1 [Compound 18, 2,6-di-tert-butyl-4-[(4-methyl-2-pyrimidinyl)amino]phenol]",36%
4,Cc1cc(Nc2cc(C(C)(C)C)c(O)c(C(C)(C)C)c2)no1 [Compound 50],12%
5,"CC(C)(C)c1cc(Nc2nccnn2)cc(C(C)(C)C)c1O [Compound 59, 2,6-di-tert-butyl-4-[(1,2,4-triazin-3-yl)amino]phenol]",37%
6,"Cc1sccc1Nc1cc(C(C)(C)C)c(O)c(C(C)(C)C)c1 [Compound 61, 2,6-di-tert-butyl-4-[(2-methyl-3-thienyl)amino]phenol]",25%

# Same assay, conditions: Rattus norvegicus, po; 100 mg/kg p.o., 1 h before carrageenin; paw volume 3 h after; vs control; read-out: Inhibition percent of edema
row,SMILES,inhibition in vivo at 100 mg/kg
1,"CC(C)c1cc(Nc2cnccn2)cc(C(C)(C)C)c1O [Compound 4, 2-isopropyl-6-tert-butyl-4-pyrazinylaminophenol]",39%
2,"CC(C)(C)c1cc(Nc2cccnn2)cc(C(C)(C)C)c1O [Compound 11, 2,6-di-tert-butyl-4-[(3-pyridazinyl)amino]phenol]",62%
3,CC(C)(C)c1cc(Nc2cncnc2)cc(C(C)(C)C)c1O [Compound 15],16%
4,Cc1cnc(Nc2cc(C(C)(C)C)c(O)c(C(C)(C)C)c2)cn1 [Compound 16],10%
5,"CC(C)(C)c1cc(Nc2cncnc2N)cc(C(C)(C)C)c1O [Compound 22, 2,6-di-tert-butyl-4-[(4-amino-5-pyrimidinyl)amino]phenol]",32%
6,CC(C)(C)c1cc(Nc2cncc(Cl)n2)cc(C(C)(C)C)c1O [Compound 25],15%
7,"CC(C)(C)c1cc(Nc2ccc(Cl)nn2)cc(C(C)(C)C)c1O [Compound 26, 2,6-di-tert-butyl-4-[(6-chloro-3-pyridazinyl)amino]phenol]",27%
8,"CC(C)(C)c1cc(Nc2cc(Cl)nnc2Cl)cc(C(C)(C)C)c1O [Compound 27, 2,6-di-tert-butyl-4-[(3,6-dichloro-4-pyridazinyl)amino]pheonl]",33%
9,"CCOc1ccc(Nc2cc(C(C)(C)C)c(O)c(C(C)(C)C)c2)nn1 [Compound 28, 2,6-di-tert-butyl-4-[(6-ethoxy-3-pyridazinyl)amino]phenol]",33%
10,"CC(C)(C)c1cc(Nc2ccc(CO)nn2)cc(C(C)(C)C)c1O [Compound 33, 2,6-di-tert-butyl-4-[(6-hydroxymethyl-3-pyridazinyl)amino]phenol]",46%
11,"CC(C)(C)c1cc(Nc2cc[nH]n2)cc(C(C)(C)C)c1O [Compound 34, 2,6-di-tert-butyl-4-(3-pyrazolylamino)phenol]",65%
12,"Cn1nccc1Nc1cc(C(C)(C)C)c(O)c(C(C)(C)C)c1 [Compound 39, 2,6-di-tert-butyl-4-[(2-methyl-3-pyrazolyl)amino]phenol]",46%
13,"CC(C)(C)c1cc(Nc2ncco2)cc(C(C)(C)C)c1O [Compound 49, 2,6-di-tert-butyl-4-[(2-oxazolyl)amino]phenol]",41%
14,"CC(C)(C)c1cc(Nc2c[nH]nn2)cc(C(C)(C)C)c1O [Compound 51, 2,6-di-tert-butyl-4-[(1,2,3-triazol-4-yl)amino]phenol]",42%
15,CC(C)(C)c1cc(Nc2nnc[nH]2)cc(C(C)(C)C)c1O [Compound 54],20%
16,"CC(C)(C)c1cc(Nn2cnnc2)cc(C(C)(C)C)c1O [Compound 55, 2,6-di-tert-butyl-4-[(1,2,4-triazol-4-yl)amino]phenol]",23%
17,"CC(C)(C)c1cc(Nc2nc(-c3ccccc3)ns2)cc(C(C)(C)C)c1O [Compound 56, 2,6-di-tert-butyl-4-[(3-phenyl-1,2,4-thiadiazol-5-yl)amino]phenol]",13%
18,"Cc1nnc(Nc2cc(C(C)(C)C)c(O)c(C(C)(C)C)c2)s1 [Compound 58, 2,6-di-tert-butyl-4-[(5-methyl-1,3,4-thiadiazol-2-yl)amino]pheonl]",30%
